Measurements taken from publication PMC9027532, “Preclinical Pharmacokinetic Studies of a Novel Diuretic Inhibiting Urea Transporters” (Molecules, 2022).
Like-named read-outs stand apart in the source and are kept apart here.

Experiments:
[1] = Tissue distribution study in rats; assay type: in vivo, SD rats; details: male, Sprague-Dawley, rat, single oral dose 100 mg/kg; for Kp: read-out: Kp (tissue plasma distribution coefficient)
From the text: Compound 25a was extensively distributed in most tissues of rats, and the drug concentration was high in organs with abundant hemoperfusions, such as the kidney, heart, lung, and spleen, among which the drug concentration was the highest in the kidney, with a tissue plasma distribution coefficient Kp = 1.67. The high kidney distribution is a good characteristic for diuretics targeting UTs, because the UTs in the renal inner medullary collecting duct (UT-A1/3) and renal vasa recta microvessels (UT-B) play vital roles in urea recycling and urine concentration. […] Thus, the potential risk of 25a for the central nervous system and male reproductive system is probably low.
Twenty-four SD rats were randomly divided into six groups and received a single oral dose of 25a at 100 mg/kg. Blood and tissues samples (i.e., brain, heart, lungs, liver, spleen, kidneys, muscle, skin, fat, testes, and leg bones) were collected at 0.25 h, 0.5 h, 2 h, 6 h, 12 h, and 24 h after dosing. The tissue samples were rinsed with cold saline and dried on filter papers, weighed, and homogenized with fivefold volumes of ultrapure water using a homogenizer (T10, IKA, Staufen, Germany) on ice. The right shin bone of the rat was crushed and soaked in methanol for 12 h at 4 °C. Tissue homogenate or bone soak solution was prepared and analyzed using the above method. Samples were stored at −80 °C until analysis.

plasma protein = experiment: Plasma protein binding by equilibrium dialysis, human plasma; assay type: in vitro ADME; details: human plasma, 50, 500, 2500 ng/mL
Experimental: (§1) The plasma protein binding (PPB) and blood plasma ratio (BPR) are crucial parameters influencing the drug distribution and elimination in plasma. The PPB profile of 25a was evaluated by equilibrium dialysis, a classic method to assess the interactions of small molecules with proteins. The PPB of 25a was tested at 50, 500, and 2500 ng/mL (Table 7). […] When considering the allometric scaling of PK parameters, the species difference of protein binding between humans and rats should be considered.
(§2) The plasma protein binding (PPB) ratio of 25a was assessed via equilibrium dialysis in SD rats and human plasma. Four hundred microliters of plasma containing 50, 500, or 2500 ng/mL 25a were loaded into the dialysis bags (plasma side), and the bags were placed into tubes containing 4 mL of the dialysis buffer (buffer side). The tubes were then rotated at approximately 100 rpm in a humidified incubator with 5% CO2 at 37 ± 1 °C for 5 h.
(§3) After the 5 h dialysis, aliquots of 50 μL samples were taken from both the buffer and the plasma sides. An equal volume of the opposite blank matrix (buffer or plasma) was added to each sample to reach a final volume of 100 μL with a volume ratio of plasma to dialysis buffer at 1:1 (v/v). All samples were further processed by adding 600 μL of stop solution (containing 10 ng/mL IS) to precipitate protein for LC–MS/MS analysis. The PPB ratio (%) was calculated by PPB% = 100% × (1 − Conc.buffer side/Conc.plasma side).

[2] = as above; assay type: in vitro ADME; details: human, plasma
Experimental: as §1, §2, §3

[3] = Blood plasma ratio, rat blood; assay type: in vitro ADME, SD rats; details: for Blood Plasma Ratio: rat
Experimental: The BPR of 25a in rats and humans was assessed. […] In addition, a significant species difference between rats and humans was observed (p < 0.05, Student’s t-test, n = 3).
The blood plasma ratio of 25a was investigated as previously reported. Briefly, fresh whole blood was collected into collection tubes containing K2–EDTA as an anticoagulant from SD rats and healthy volunteers. Blood spiked with 50, 500, and 2500 ng/mL 25a was incubated in the incubator with 5% CO2 at 37 ± 1 °C for 1 h. Some of the incubated samples were processed as blood samples; the remaining incubated samples were centrifuged to generate plasma samples. The concentration of 25a in samples was determined using the validated LC–MS/MS method.

SD rats = experiment: PK-PD study: urine output increment (diuresis) in rats; assay type: in vivo, Sprague-Dawley rats
UT-B = test system: UT-B; set-up: method as in PMID 34601246; details: rat; read-out: inhibitory effect on UT-B; cited from earlier work
mice = test system: mice; set-up: method as in PMID 34601246; details: orally administered; cited from earlier work
[4] = plasma (tissue distribution study)

CC(=O)Nc1ccc(NC(=O)c2ccc(C(C)=O)o2)cc1 [Compound 25a, N-(4-acetamidophenyl)-5-acetylfuran-2-carboxamide]
AUC(0-t) ([1]; bone): 2680 ± 660 ng·h/mL
Cmax ([1]; bone): 413 ± 150 ng/mL
Tmax ([1]; bone): 1.1 ± 0.9 h
half-life ([1]; bone): 3.7 ± 0.5 h
Kp ([1]; bone): 0.4
AUC(0-t) ([1]; brain): 1390 ± 602 ng·h/mL
Cmax ([1]; brain): 820 ± 769 ng/mL
Tmax ([1]; brain): 0.9 ± 0.6 h
half-life ([1]; brain): 6.1 ± 2.8 h
Kp ([1]; brain): 0.27
AUC(0-t) ([1]; fat): 1570 ± 650 ng·h/mL
Cmax ([1]; fat): 333 ± 238 ng/mL
Tmax ([1]; fat): 1.3 ± 0.8 h
half-life ([1]; fat): 6.6 ± 4.2 h
Kp ([1]; fat): 0.31
AUC(0-t) ([1]; heart): 4160 ± 1010 ng·h/mL
Cmax ([1]; heart): 631 ± 64.8 ng/mL
Tmax ([1]; heart): 0.8 ± 0.7 h
half-life ([1]; heart): 3.5 ± 0.6 h
Kp ([1]; heart): 0.8
AUC(0-t) ([1]; kidney): 8670 ± 1510 ng·h/mL
Cmax ([1]; kidney): 1480 ± 473 ng/mL
Tmax ([1]; kidney): 0.4 ± 0.1 h
half-life ([1]; kidney): 4.2 ± 0.8 h
Kp ([1]; kidney): 1.67
AUC(0-t) ([1]; liver): 1650 ± 1000 ng·h/mL
Cmax ([1]; liver): 183 ± 144 ng/mL
Tmax ([1]; liver): 3.6 ± 2.5 h
half-life ([1]; liver): 6.3 ± 3.4 h
Kp ([1]; liver): 0.22
AUC(0-t) ([1]; lung): 3720 ± 880 ng·h/mL
Cmax ([1]; lung): 1130 ± 1010 ng/mL
Tmax ([1]; lung): 0.4 ± 0.1 h
half-life ([1]; lung): 3.6 ± 0.7 h
Kp ([1]; lung): 0.72
AUC(0-t) ([1]; muscle): 4000 ± 790 ng·h/mL
Cmax ([1]; muscle): 728 ± 216 ng/mL
Tmax ([1]; muscle): 0.8 ± 0.7 h
half-life ([1]; muscle): 3.2 ± 0.4 h
Kp ([1]; muscle): 0.79
AUC(0-t) [1, 4]: 5200 ± 1590 ng·h/mL
Cmax [1, 4]: 1120 ± 132 ng/mL
Tmax [1, 4]: 0.3 h
half-life [1, 4]: 5.7 ± 4.8 h
Kp [1, 4]: 1
AUC(0-t) ([1]; skin): 4830 ± 1080 ng·h/mL
Cmax ([1]; skin): 701 ± 124 ng/mL
Tmax ([1]; skin): 2.6 ± 2.1 h
half-life ([1]; skin): 3.6 ± 0.5 h
Kp ([1]; skin): 0.93
AUC(0-t) ([1]; spleen): 4270 ± 2630 ng·h/mL
Cmax ([1]; spleen): 934 ± 793 ng/mL
Tmax ([1]; spleen): 0.9 ± 0.6 h
half-life ([1]; spleen): 4.5 ± 0.8 h
Kp ([1]; spleen): 0.82
AUC(0-t) ([1]; testis): 338 ± 144 ng·h/mL
Cmax ([1]; testis): 50.6 ± 26.4 ng/mL
Tmax ([1]; testis): 6 h
Kp ([1]; testis): 0.06
mean plasma protein binding (PPB) (plasma protein): 38.8%–44.1%
fraction unbound at 5 h, 50 ng/mL ([2]; human plasma, 50 ng/mL): 0.559
fraction unbound at 5 h, 500 ng/mL ([2]; human plasma, 500 ng/mL): 0.612
fraction unbound at 5 h, 2500 ng/mL ([2]; human plasma, 2500 ng/mL): 0.595
fraction unbound at 5 h ([2]; human plasma, 50, 500, 2500 ng/mL, read-out: mean plasma protein binding (PPB) (converted)): ~0.6
urine output increment per 12 h (diuresis) (SD rats; p.o. 25 mg/kg): 0.5 ± 0.2 mL
urine output increment per 12 h (diuresis) (SD rats; p.o. 50 mg/kg): 1.6 ± 0.8 mL
urine output increment per 12 h (diuresis) (SD rats; p.o. 100 mg/kg): 2.7 ± 0.9 mL
Na+, K+, and Cl− levels in the blood (mice): without disturbing
urine output vs vehicle control (mice): three times higher urine output than vehicle control
